Here are results for three molecules from ChEMBL document CHEMBL3046494, “Identification of liver X receptor and farnesoid X receptor dual agonists from Tithonia diversifolia” (Med Chem Res, 2013).

What all share (assay type): cell-based
Series [1] addresses T1, Oxysterols receptor LXR-alpha (Homo sapiens) (UniProt Q13133).
T1 sequence (whole entry): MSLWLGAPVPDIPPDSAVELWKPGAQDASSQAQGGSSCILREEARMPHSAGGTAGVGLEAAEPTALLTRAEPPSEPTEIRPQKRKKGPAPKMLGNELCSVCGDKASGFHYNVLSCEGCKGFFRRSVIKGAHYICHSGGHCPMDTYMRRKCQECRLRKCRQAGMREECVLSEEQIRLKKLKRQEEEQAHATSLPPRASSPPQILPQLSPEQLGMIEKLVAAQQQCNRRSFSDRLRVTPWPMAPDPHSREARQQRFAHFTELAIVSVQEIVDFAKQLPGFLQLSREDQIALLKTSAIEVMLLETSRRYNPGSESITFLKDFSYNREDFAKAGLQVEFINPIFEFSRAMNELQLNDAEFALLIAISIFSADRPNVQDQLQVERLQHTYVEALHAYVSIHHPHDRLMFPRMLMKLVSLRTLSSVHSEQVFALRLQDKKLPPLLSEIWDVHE
In words: Agonist activity at Homo sapiens (human) LXRalpha expressed in HepG2 cells assessed as transactivation of SREBP1c gene expression at 1 uM after 48 hr by luciferase reporter gene assay relative to control. A general note: A reporter such as luciferase makes a cellular process visible.

For series [2], the target named is T2, Oxysterols receptor LXR-beta (Homo sapiens) (UniProt P55055).
T2 sequence (whole entry): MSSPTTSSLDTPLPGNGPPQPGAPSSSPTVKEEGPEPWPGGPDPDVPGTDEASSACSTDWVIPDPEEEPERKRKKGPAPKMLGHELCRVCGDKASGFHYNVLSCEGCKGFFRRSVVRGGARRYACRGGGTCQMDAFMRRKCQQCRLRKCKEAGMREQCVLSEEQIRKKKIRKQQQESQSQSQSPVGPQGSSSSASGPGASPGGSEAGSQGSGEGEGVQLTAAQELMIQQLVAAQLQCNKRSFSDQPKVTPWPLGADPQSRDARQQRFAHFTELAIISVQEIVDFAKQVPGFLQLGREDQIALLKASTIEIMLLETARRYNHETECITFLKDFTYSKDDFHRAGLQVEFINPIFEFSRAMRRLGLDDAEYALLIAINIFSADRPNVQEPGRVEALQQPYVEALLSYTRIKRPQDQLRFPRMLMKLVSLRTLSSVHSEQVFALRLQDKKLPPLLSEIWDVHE
In words: Agonist activity at Homo sapiens (human) LXRbeta expressed in HepG2 cells assessed as transactivation of ABCA1 gene expression at 10 uM after 48 hr by luciferase reporter gene assay relative to control.

Series [3] concerns the target T1, Oxysterols receptor LXR-alpha (Homo sapiens). In words: Agonist activity at Homo sapiens (human) LXRalpha expressed in HepG2 cells assessed as transrepression of PEPCK gene expression after 48 hr by luciferase reporter gene assay.
Series [4] shares this target. In words: Agonist activity at Homo sapiens (human) LXRalpha expressed in HepG2 cells assessed as decrease in PEPCK gene transactivation at 10 uM after 48 hr by luciferase reporter gene assay relative to control. Also noted: scale not given: the % may be the effect or the level left.
Series [5] has as its target T3, Bile acid receptor (Homo sapiens) (UniProt Q96RI1).
T3 sequence (whole entry): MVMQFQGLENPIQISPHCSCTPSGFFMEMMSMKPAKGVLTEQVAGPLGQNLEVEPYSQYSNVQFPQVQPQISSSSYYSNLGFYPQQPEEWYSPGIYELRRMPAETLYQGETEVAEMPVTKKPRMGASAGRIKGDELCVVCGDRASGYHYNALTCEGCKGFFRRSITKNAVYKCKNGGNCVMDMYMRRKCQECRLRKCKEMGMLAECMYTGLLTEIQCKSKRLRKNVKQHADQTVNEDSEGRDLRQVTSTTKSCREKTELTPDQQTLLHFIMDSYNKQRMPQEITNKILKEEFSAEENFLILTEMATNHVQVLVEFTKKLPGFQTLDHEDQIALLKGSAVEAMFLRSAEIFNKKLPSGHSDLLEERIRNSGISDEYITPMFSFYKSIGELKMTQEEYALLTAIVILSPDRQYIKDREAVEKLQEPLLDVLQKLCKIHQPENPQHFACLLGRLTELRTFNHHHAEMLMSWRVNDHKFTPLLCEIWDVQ
The series is described as follows: Agonist activity at Homo sapiens (human) FXR ligand binding domain expressed in HepG2 cells assessed as transactivation of SHP gene expression at 100 nM after 48 hr by luciferase reporter gene assay relative to control.

Series [6] deals with HepG2. The series is described as follows: Cytotoxicity against Homo sapiens (human) HepG2 cells after 48 hr. Particulars: hepg2, 48 h.
In series [7] the target is T2, Oxysterols receptor LXR-beta (Homo sapiens). The series is described as follows: Agonist activity at Homo sapiens (human) LXRbeta expressed in HepG2 cells assessed as transactivation of ABCA1 gene expression at 1 uM after 48 hr by luciferase reporter gene assay relative to control.
Series [8] deals with T1, Oxysterols receptor LXR-alpha (Homo sapiens). The series is described as follows: Agonist activity at Homo sapiens (human) LXRalpha expressed in HepG2 cells assessed as transactivation of SREBP1c gene expression at 10 uM after 48 hr by luciferase reporter gene assay relative to control.
Series [9] has the same target. The series is described as follows: Agonist activity at Homo sapiens (human) LXRalpha expressed in HepG2 cells assessed as transactivation of SREBP1c gene expression after 48 hr by luciferase reporter gene assay.
Series [10] has as its target T3, Bile acid receptor (Homo sapiens). In words: Agonist activity at Homo sapiens (human) FXR ligand binding domain expressed in HepG2 cells assessed as transactivation of SHP gene expression at 10 uM after 48 hr by luciferase reporter gene assay relative to control.
The target in series [11] is T1, Oxysterols receptor LXR-alpha (Homo sapiens). The series is described as follows: Agonist activity at Homo sapiens (human) LXRalpha expressed in HepG2 cells assessed as transactivation of CYP7A1 gene expression at 10 uM after 48 hr by luciferase reporter gene assay relative to vehicle-treated control.
Series [12] concerns the target T3, Bile acid receptor (Homo sapiens). In words: Agonist activity at Homo sapiens (human) FXR ligand binding domain expressed in HepG2 cells assessed as transactivation of GAL4 gene expression at 1 uM after 48 hr by luciferase reporter gene assay relative to control.
Series [13] shares this target. In words: Agonist activity at Homo sapiens (human) FXR ligand binding domain expressed in HepG2 cells assessed as transactivation of GAL4 gene expression at 100 nM after 48 hr by luciferase reporter gene assay relative to control.
Series [14] deals with T1, Oxysterols receptor LXR-alpha (Homo sapiens). In words: Agonist activity at Homo sapiens (human) LXRalpha expressed in HepG2 cells assessed as transactivation of ABCA1 gene expression at 10 uM after 48 hr by luciferase reporter gene assay relative to control.
Series [15] shares this target. In words: Agonist activity at Homo sapiens (human) LXRalpha expressed in HepG2 cells assessed as transactivation of ABCA1 gene expression after 48 hr by luciferase reporter gene assay.
The target is the same in series [16]. In words: Agonist activity at Homo sapiens (human) LXRalpha expressed in HepG2 cells assessed as PEPCK gene expression at 100 nM after 48 hr by luciferase reporter gene assay relative to control.
The target of series [17] is T2, Oxysterols receptor LXR-beta (Homo sapiens). The series is described as follows: Agonist activity at Homo sapiens (human) LXRbeta expressed in HepG2 cells assessed as transactivation of ABCA1 gene expression after 48 hr by luciferase reporter gene assay.

The structures appear in SMILES notation. Activity calls are given as the source filed them. The calls are words filed in the database; no cut-off is given here.

In the case of `C=C1C(=O)O[C@@H]2C[C@H](C)[C@@]3(O)C[C@H](O)[C@@](C)(C[C@@H](OC(=O)C(C)C)[C@@H]12)O3` [TAGITININ A], the fold change (FC) in series [1] was determined as 2.26; in [2] it was 1.5; in series [7], 1.5; in [8], 3.42; in series [10], 2.3; in [11], 2. The fold change (FC) worked out at 1.6 in series [12] and 1.9 in series [14]. The Activity entry was “Dose-dependent effect” in series [3]; 58% in [4]; “Non-toxic” in [6]; “Dose-dependent effect” in series [9]; “Dose-dependent effect” in series [15]; “Dose-dependent effect” in series [17]. In addition, the outcome in series [5], in series [13] and in series [16] was inactive.
In the case of `C=C1C(=O)O[C@@H]2/C=C(/C)C(=O)/C=C/[C@](C)(O)C[C@@H](OC(=O)C(C)C)[C@@H]12` [TAGITININ C], in series [6], the Activity result is reported as “Toxic”.
Turning to `C=C1C(=O)O[C@@H]2C[C@H](C)[C@@]3(O)CC[C@@](C)(C[C@@H](OC(=O)C(C)C)[C@@H]12)O3` [TIROTUNDIN], the fold change (FC) came to 2.3 in series [1]; 2.2 in series [2]; 1.5 in series [7]; 4.52 in series [8]; 2.41 in series [10]; 2 in series [11]. Also, the fold change (FC) in series [12] came out at 1.6; in [14], 1.7; in series [16], 0.94. For the same molecule, the Activity result in [3] is “Dose-dependent effect”; in series [4] it was 46%; in series [6], “Non-toxic”; in [9] it was “Dose-dependent effect”; in [15], “Dose-dependent effect”; in [17], “Dose-dependent effect”. Also, the result in series [5] and in series [13] was inactive.
